Measurements taken from publication PMC12467740, “Synthesis, Characterization, and Screening Anticancer—Antibiofilm Activities of Theophylline Derivatives Containing CF3/OCF3 Moiety” (Biology, 2025).
Where “and” joins values, the source holds several entries; their conditions need not be identical. Identical values can stand only once.

How the values were obtained:
[1] = system: CYP450; settings: cited from earlier work
[2] = system: Candida albicans; experiment: Well plate biofilm formation assay (crystal violet); format: cell-based; settings: over the concentration range given per compound (Table 4)
Experimental: (§1) The well plate assay was utilized to test the effectiveness of compounds in inhibiting biofilms made by microorganisms. An amount of 100 μL of Brucella broth (Remel, Lenexa, KS, USA) containing 1% and 20% glucose (Biolife, Milan, Italy), were dispensed into the test wells. In the next step, 100 μL of compounds ranging from 0.244 to 1000 μg/mL were poured into the wells. […] Then, 0.5 McFarland standard in physiological saline from each microorganism strain were prepared and 20 μL of the prepared suspension was added to the wells. A column of the microplate containing 100 μL Brucella broth served as a negative control and another column of the microplate containing 100 μL Brucella with 20 μL of each microorganism added served as a growth control. As positive controls, ciprofloxacin was applied against bacterial strains at a concentration range of 0.03125-64 μg/mL, and fluconazole was used against Candida albicans at a concentration range of 0.3125-640 μg/mL. Plates were left to incubate at 36.5 °C for a day. The plates were emptied and then washed three times with 300 μL of deionized water. The wells were left to dry for half an hour. The next step was staining with 0.1% (w/v) violet dye ([…]), cleaning three times with deionized water, and drying at room temperature. The crystal violet adhering to the wall of the wells was dissolved with 95% ethanol, and the optical density was measured at 570 nm. The test was run two times, and the mean value was calculated. Biofilm preventing (%) = {(ODb - ODc)/ODb} × 100.

[3] = system: Enterococcus faecalis; experiment: as above; format: cell-based; settings: over the concentration range given per compound (Table 4)
Experimental: as §1

[4] = system: HeLa cells; experiment: ELISA of apoptosis-related proteins, HeLa; format: cell-based, human; settings: IC50, 48 h, vs untreated controls
Experimental: (§2) To validate the gene expression changes observed in the RT-qPCR analysis at the protein level, ELISA assays were conducted to measure the protein levels in A549 and HeLa cells. […] Following incubation, cells were washed with cold PBS and lysed using RIPA buffer supplemented with protease and phosphatase inhibitors. […] was removed by centrifugation at 14,000× g for 10 min. Total protein concentration in the cell lysates was determined spectrophotometrically using the BCA Protein Assay Kit (Thermo Scientific, Waltham, MA, USA). Protein concentrations were standardized to equal amounts across all samples prior to ELISA analysis. Commercially available Human ELISA Kit (Abcam, Cambridge, UK) were used to quantify Caspase-3, BAX, BCL-2, and Cytochrome C levels, and all assays were performed according to the manufacturers’ protocols. Absorbance was measured at 450 nm using a microplate reader. All experiments were conducted in triplicate. The results were normalized to the control group (control = 1) and expressed as fold change relative to untreated controls.

[5] = system: HeLa cells; experiment: RT-qPCR of apoptosis-related genes, HeLa; format: cell-based, human; settings: IC50 concentration, 48 h, vs untreated control
Experimental: (§3) Total RNA was isolated from cells using the RNeasy Mini Kit (Qiagen GmbH, Hilden, Germany) according to the manufacturer’s instructions. RNA quality and quantity were evaluated spectrophotometrically. Subsequently, cDNA synthesis was performed using the iScript™ cDNA Synthesis Kit (Bio-Rad Laboratories, Hercules, CA, USA).
(§4) RT-qPCR reactions (LightCycler® 480 Instrument II (Roche Diagnostics, Mannheim, Germany) were carried out using SYBR™ Green PCR Master Mix (Applied Biosystems, Foster City, CA, USA) and gene-specific primers targeting pro-apoptotic genes (CASP3, CASP8, CASP9, BAX, BAK1, PUMA, NOXA, CYCS), anti-apoptotic genes (BCL2, BCL-XL, MCL1), cell cycle/stress-related genes (TP53, CDKN1A/p21, GADD45A, ATF4), and the reference gene GAPDH. The primer sequences used for each gene are presented in the Supplementary File (Figure S66).
(§5) All reactions were conducted in triplicate, and negative controls (no-template controls, NTC) were included in each run. Relative gene expression levels were analyzed using the 2^−ΔΔCt method, and results were normalized to control samples (control expression set as ‘1’) and expressed as fold change relative to controls.

[6] = system: A549 cells; experiment: RT-qPCR of apoptosis-related genes, A549; format: cell-based, human; settings: A549, IC50 concentration, 48 h, vs untreated control
Experimental: as §3, §4, §5

[7] = system: BEAS-2B cells; experiment: MTT cell viability assay, BEAS-2B; format: cell-based; settings: Homo sapiens, 48 h, mean ± SD (n = 3)
Experimental: (§6) The anticancer potential of substituted theophylline derivatives was investigated using human lung carcinoma (A549, CCL-185) and cervical cancer (HeLa, CCL-2) cell lines obtained from the American Type Culture Collection (ATCC). To evaluate the selectivity of the tested compounds, cytotoxicity was also assessed in a healthy human bronchial epithelial cell line (BEAS-2B, ATCC CRL-9609). Cells were maintained in DMEM (Euroclone S.p.A., Pero, Italy supplemented with 10% fetal bovine serum (Sigma-Aldrich, St. Louis, MO, USA) and 1% penicillin–streptomycin (1%, Capricorn Scientific GmbH, Ebsdorfergrund, Germany at 37 °C in a humidified atmosphere containing 5% CO2. The theophylline-derived compounds (1a–1e) were dissolved in DMSO to prepare 100 mM stock solutions, which were then diluted with DMEM to obtain final working concentrations ranging from 3.125 µM to 100 µM. To evaluate cell viability, the MTT colorimetric assay was employed. Upon reaching logarithmic growth, A549, HeLa and BEAS-2B cells were seeded at a density of 7000 cells per well in 96-well microplates and allowed to attach for 24 h. Following this, cells were treated with different concentrations of the compounds and incubated for 48 h. After treatment, 100 µL of fresh medium and 20 µL of MTT reagent (5 mg/mL, Bio Basic Inc., Markham, ON, Canada) were added to each well, and cells were incubated for an additional 3 h. The resulting formazan crystals were solubilized with DMSO. Cell viability was calculated as the percentage of absorbance relative to untreated controls, and IC50 values were determined by nonlinear regression analysis using GraphPad Prism software, version 8.0 (GraphPad Software, San Diego, CA, USA. All experiments were performed in at least three independent replicates, and results are reported as mean ± SD. The percentage of inhibition was calculated based on the reduction in metabolic activity of the cells following compound treatment, as assessed by the MTT assay. The absorbance was measured at 570 nm using a microplate reader. The inhibition (%) was calculated using the following formula:Inhibition %=[1 − (Asample − Ablank)/[…]] × 100 To assess the tumor selectivity of the tested theophylline derivatives, the selectivity index (SI) was calculated for each compound. SI is defined as the ratio of the IC50 value in healthy (non-tumorigenic) cells to the IC50 value in cancer cells. In this study, IC50 values were determined for BEAS-2B (non-tumorigenic human bronchial epithelial cells) as a healthy control and for A549 (lung adenocarcinoma) and HeLa (cervical carcinoma) as tumor models. The SI was calculated according to the following equation:SI = [IC50, healthy/IC50, cancer]

[8] = system: A549 cells; experiment: MTT cell viability assay, A549; format: cell-based, human; settings: for IC50: MTT, 48 h, mean ± SD (n = 3); for SI (A549): ratio of IC50 in BEAS-2B cells to IC50 in A549 cells
Experimental: as §6

[9] = system: Pseudomonas aeruginosa; experiment: Well plate biofilm formation assay (crystal violet); format: cell-based; settings: over the concentration range given per compound (Table 4)
Experimental: as §1

[10] = system: Escherichia coli; experiment: as above; format: cell-based; settings: over the concentration range given per compound (Table 4)
Experimental: as §1

[11] = system: Staphylococcus aureus; experiment: as above; format: cell-based; settings: over the concentration range given per compound (Table 4); 1c and 1e at 1000 µg/mL
Experimental: as §1

[12] = system: HeLa cells; experiment: MTT cell viability assay, HeLa; format: cell-based, human; settings: for IC50: 48 h, MTT, mean ± SD (n = 3); for SI (HeLa): ratio of IC50 in BEAS-2B cells to IC50 in HeLa cells
Experimental: as §6

[13] = system: A549 cells; experiment: ELISA of apoptosis-related proteins, A549; format: cell-based, human; settings: A549, IC50, 48 h, vs untreated controls
Experimental: as §2

For `C[C@]12CC[C@H](O)CC1=CC[C@@H]1[C@@H]2CC[C@]2(C)C(c3cccnc3)=CC[C@@H]12` [Abiraterone], the “binding properties (docking)” value [1] is given as -43.1 kJ/mol.
For `Cn1c(=O)c2c(ncn2Cc2ccccc2C(F)(F)F)n(C)c1=O` [Compound 1a, 1,3-Dimethyl-7-(2-(trifluoromethyl)benzyl)-3,7-dihydro-1H-purine-2,6-dione], the “Antibiofilm activity Candida albicans” value [2] was 0.5–13.7%, the “Antibiofilm activity Enterococcus faecalis” value [3] was 1.08–14.7% and the “Protein level of BCL-2” value [4] was “marked decrease”. The “Protein levels of Caspase-3, BAX and Cytochrome C” value [4] was “significant increases”, the “Expression of anti-apoptotic genes (BCL2, BCL-XL, MCL1)” value [5] was “notable downregulation” and the “Expression of pro-apoptotic genes (CASP3, CASP8, CASP9, BAX, BAK1, PUMA, NOXA, CYCS) and cell cycle/stress genes (TP53, CDKN1A, FAS, GADD45A, ATF4)” value [5] was “significant upregulation”. For the same molecule, the “Expression of anti-apoptotic genes (BCL2, BCL-XL, MCL1)” value [6] was “notable downregulation”, the “Expression of pro-apoptotic genes (CASP3, CASP8, CASP9, BAX, BAK1, PUMA, NOXA, CYCS) and cell cycle/stress genes (TP53, CDKN1A, FAS, GADD45A, ATF4)” value [6] was “significant upregulation” and the IC50 [7] was 100 ± 2 µM. For the same molecule, the IC50 ([8]; Homo sapiens, A549, 48 h) was 15.7 ± 0.6 µM, the IC50 [8] was 12.4 ± 0.7 µM and the “SI (A549)” value [8] was 8.06 ± 0.03 and 8.06 ± 0.10. For the same molecule, the “Antibiofilm activity Pseudomonas aeruginosa” value [9] was “did not show antibiofilm activity and –”, the “Antibiofilm activity Escherichia coli” value [10] was “did not show antibiofilm activity and –” and the “Antibiofilm activity Staphylococcus aureus” value [11] was “did not show antibiofilm activity and –”. The IC50 ([12]; Homo sapiens, HeLa) was 11.5 ± 1.2 µM, the “SI (HeLa)” value [12] was 8.70 ± 0.20 and the “Protein level of BCL-2” value [13] was “marked decrease”. For the same molecule, the “Protein levels of Caspase-3, BAX and Cytochrome C” value [13] was “significant increases”.
With `Cn1c(=O)c2c(ncn2Cc2cccc(C(F)(F)F)c2)n(C)c1=O` [Compound 1b, 1,3-Dimethyl-7-(3-(trifluoromethyl)benzyl)-3,7-dihydro-1H-purine-2,6-dione] the “Antibiofilm activity Candida albicans” value [2] was 0.8–23.9%, the “Antibiofilm activity Enterococcus faecalis” value [3] was 5.7–23.1% and the IC50 [7] was 120 ± 3 µM. The IC50 ([8]; Homo sapiens, A549, 48 h) was 12.4 ± 0.7 µM, the IC50 [8] was 13.6 ± 0.9 µM and the “SI (A549)” value [8] was 8.82 ± 0.20. For the same molecule, the “Antibiofilm activity Pseudomonas aeruginosa” value [9] was “did not show antibiofilm activity and –”, the “Antibiofilm activity Escherichia coli” value [10] was “did not show antibiofilm activity and –” and the “Antibiofilm activity Staphylococcus aureus” value [11] was “did not show antibiofilm activity and –”. For the same molecule, the IC50 ([12]; Homo sapiens, HeLa) was 10.8 ± 0.8 µM, the IC50 [12] was 14.7 ± 0.7 µM and the “SI (HeLa)” value [12] was 8.16 ± 0.16.
For `Cn1c(=O)c2c(ncn2Cc2ccc(C(F)(F)F)cc2)n(C)c1=O` [Compound 1c, 1,3-Dimethyl-7-(4-(trifluoromethyl)benzyl)-3,7-dihydro-1H-purine-2,6-dione], the “Antibiofilm activity Candida albicans” value [2] was 0.9–12.3%, the “Antibiofilm activity Enterococcus faecalis” value [3] was 0.7–16.0% and the IC50 [7] was 90 ± 3 µM. The IC50 ([8]; Homo sapiens, A549, 48 h) was 13.6 ± 0.9 µM, the IC50 [8] was 15.7 ± 0.6 µM and the “SI (A549)” value [8] was 5.73 ± 0.15. The “Antibiofilm activity Pseudomonas aeruginosa” value [9] was “did not show antibiofilm activity and –”, the “Antibiofilm activity Escherichia coli” value [10] was “did not show antibiofilm activity and –” and the “Antibiofilm activity Staphylococcus aureus” value [11] was 20.1%. The IC50 ([12]; Homo sapiens, HeLa) was 14.7 ± 0.7 µM, the IC50 [12] was 11.5 ± 1.2 µM and the “SI (HeLa)” value [12] was 7.83 ± 0.22.
For `Cn1c(=O)c2c(ncn2Cc2cc(C(F)(F)F)cc(C(F)(F)F)c2)n(C)c1=O` [Compound 1d, 1,3-Dimethyl-7-(3,5-bis(trifluoromethyl)benzyl)-3,7-dihydro-1H-purine-2,6-dione], the “Antibiofilm activity Candida albicans” value [2] was 1.8–11.8%, the “Antibiofilm activity Enterococcus faecalis” value [3] was 0.7–23.9% and the IC50 [7] was 150 ± 4 µM. For the same molecule, the IC50 ([8]; Homo sapiens, A549, 48 h) was 29.1 ± 0.5 µM, the IC50 [8] was 31.4 ± 1 µM and the “SI (A549)” value [8] was 4.78 ± 0.14. The “Antibiofilm activity Pseudomonas aeruginosa” value [9] was “did not show antibiofilm activity and –”, the “Antibiofilm activity Escherichia coli” value [10] was “did not show antibiofilm activity and –” and the “Antibiofilm activity Staphylococcus aureus” value [11] was “did not show antibiofilm activity and –”. The IC50 ([12]; Homo sapiens, HeLa) was 32.4 ± 0.85 µM, the IC50 [12] was 34.5 ± 1 µM and the “SI (HeLa)” value [12] was 4.35 ± 0.13.
In the case of `Cn1c(=O)c2c(ncn2Cc2ccc(OC(F)(F)F)cc2)n(C)c1=O` [Compound 1e, 1,3-Dimethyl-7-(4-(trifluoromethoxy)benzyl)-3,7-dihydro-1H-purine-2,6-dione], the “Antibiofilm activity Candida albicans” value [2] is reported as 0.4–23.4%, the “Antibiofilm activity Enterococcus faecalis” value [3] is reported as 5.1–13.9% and the IC50 [7] is reported as 140 ± 3 µM. For the same molecule, the IC50 ([8]; Homo sapiens, A549, 48 h) was 31.4 ± 1 µM, the IC50 [8] was 29.1 ± 0.5 µM and the “SI (A549)” value [8] was 4.81 ± 0.09. The “Antibiofilm activity Pseudomonas aeruginosa” value [9] was “did not show antibiofilm activity and –”, the “Antibiofilm activity Escherichia coli” value [10] was “did not show antibiofilm activity and –” and the “Antibiofilm activity Staphylococcus aureus” value [11] was 13.6%. The IC50 ([12]; Homo sapiens, HeLa) was 34.5 ± 1.25 µM, the IC50 [12] was 32.4 ± 0.8 µM and the “SI (HeLa)” value [12] was 4.32 ± 0.11.
